Measurements from paper PMC6944458, “Intracellular and in vivo evaluation of imidazo[2,1-b]thiazole-5-carboxamide anti-tuberculosis compounds” (PLoS ONE, 2020).
≈ marks a conversion by molar mass, not a printed value. Where two headings read alike, the source gives them in different places.

Columns and labels:
H37Rv-Mtb = assay: MIC against replicating H37Rv-Mtb in liquid media; format: cell-based, Mycobacterium tuberculosis; conditions: Mycobacterium tuberculosis, H37RV, 120 h, replicating, 5 days, OD590
[1] = test system: M. tuberculosis strain H37Rv-LUX; assay: microbe, parasite or virus in culture; format: cell-based; conditions: Mycobacterium tuberculosis, read-out: LORA MIC
VERO cell line = assay: Eukaryotic cytotoxicity (CellTiter-Glo); format: cell-based, African green monkey; conditions: Chlorocebus sabaeus, 48 h, 2-day incubation, read-out: VERO Toxicity IC50
Procedure: Cytotoxicity was tested against the African green monkey adult kidney cell line (VERO, ATCC CRL-1586) as described. Compounds were tested as 10-point, 3-fold serial dilutions in DMSO (final assay concentration of 1% DMSO) and viability was measured using CellTiter-Glo (Promega). Inhibition curves were fitted using the Levenberg–Marquardt algorithm. IC50 was defined as the concentration required to reduce cell viability by 50% after 2-day incubation.

[2] = test system: M. tuberculosis GC1237 (Mtb-GFP) in Raw 264.7 macrophages; assay: Intracellular mycobacterial replication assay in macrophages; format: cell-based; conditions: Mycobacterium tuberculosis, 120 h, 5 days, read-out: MIC, intracellular M. tuberculosis growth in macrophages
CYP2B6 = biological target: T1, CYP2B6 (Homo sapiens, UniProt P20813); assay: biochemical; format: in vitro ADME; conditions: human liver microsomes; read-out: Cytochrome P450 Inhibition IC50 CYP2B6
T1 construct: human liver microsomes were incubated with a probe substrate for each CYP isoform; from tissue; host or cells: human liver microsomes
Procedure: (§1) Compounds were tested for inhibition of six cytochrome P450 enzyme isoforms—CYP2B6, CYP2C8, CYP2C9, CYP2C19, CYP2D6 and CYP3A4 [27]. For each assay, human liver microsomes were incubated with a probe substrate for each CYP isoform in the presence of compound. Compounds were prepared as a 7-point dilution series in acetonitrile:DMSO (9:1). The final DMSO content in the reaction mixture was equal in all solutions used within an assay and was < 0.2%. Samples were run in duplicate.

CYP2C19 = biological target: T2, CYP2C19 (Homo sapiens, UniProt P33261); assay: biochemical; format: in vitro ADME; conditions: human liver microsomes; read-out: Cytochrome P450 Inhibition IC50 CYP2C19
T2 construct: human liver microsomes were incubated with a probe substrate for each CYP isoform; from tissue; host or cells: human liver microsomes
Procedure: as §1

CYP2C8 = biological target: T3, CYP2C8 (Homo sapiens, UniProt P10632); assay: biochemical; format: in vitro ADME; conditions: human liver microsomes; read-out: Cytochrome P450 Inhibition IC50 CYP2C8
T3 construct: human liver microsomes were incubated with a probe substrate for each CYP isoform; from tissue; host or cells: human liver microsomes
Procedure: as §1

CYP2C9 = biological target: T4, CYP2C9 (Homo sapiens, UniProt P11712); assay: biochemical; format: in vitro ADME; conditions: human liver microsomes; read-out: Cytochrome P450 Inhibition IC50 CYP2C9
T4 construct: human liver microsomes were incubated with a probe substrate for each CYP isoform; from tissue; host or cells: human liver microsomes
Procedure: as §1

CYP2D6 = biological target: T5, CYP2D6 (Homo sapiens, UniProt P10635); assay: biochemical; format: in vitro ADME; conditions: human liver microsomes; read-out: Cytochrome P450 Inhibition IC50 CYP2D6
T5 construct: human liver microsomes were incubated with a probe substrate for each CYP isoform; from tissue; host or cells: human liver microsomes
Procedure: as §1

CYP3A4 = biological target: T6, CYP3A4 (Homo sapiens, UniProt P08684); assay: biochemical; format: in vitro ADME
T6 construct: human liver microsomes were incubated with a probe substrate for each CYP isoform; from tissue; host or cells: human liver microsomes
Procedure: as §1

[3] = test system: CYP2B6, CYP2C8, CYP2C9, CYP2C19, CYP2D6, CYP3A4; assay: in vitro; format: in vitro ADME; conditions: human; range over isoforms, >10 to >20; read-out: IC50 against all the major cytochrome P450 isoforms
Procedure: as §1

in vitro [4] = format: in vitro ADME; conditions: human, s9, NADPH, 37°C
Procedure: Compounds were tested for microsomal stability using pooled human liver S9 microsomes. Microsomes were incubated with the test compound at 37°C in the presence of the co-factor NADPH. The reaction was terminated, the supernatant recovered, and test compounds quantified by LC-MS/MS. A fixed concentration of test compound was tested in duplicate at 5 timepoints and compound stability was expressed as a function of time. Human liver microsomes were purchased from Celsis (catalog number X008068).

in vivo = assay: in vivo; parameters: species or system Balb/c mice
Procedure: ND-11543 was dissolved in 20% TPGS (d-α tocopheryl polyethylene glycol 1000 succinate) to give a fine white suspension which was dosed at 100, 300 and 500 mg/kg orally on three consecutive days, 3 mice per dose group. Mice were observed 10 min, 1, 2, 4 hr after dosing and then daily afterwards. During the observations, humane handling practices and animal welfare regulations were strictly followed.

Single dose plasma PK = format: in vivo, Balb/c mice
Procedure: Basic pharmacokinetic analysis was determined after a single dose of 200 mg/kg with and without the administration of 100 mg/kg of 1-aminobenzotriazole (ABT) (Sigma, #A3940) given 2 hr by gavage prior to ND-11543 administration. ABT (100 mg/kg dose) was administered by oral gavage in 0.5% (w/v) methyl cellulose 400 solution. ND-11543 (200 mg/kg dose) was prepared in 20% TPGS and dosed orally 2 hr after ABT administration. Female mice (6–8 week old Balb/c from Charles River) were rested one to two weeks before dosing. Blood was collected from the mice at time points of 0.5, 2, 4, 8, 12 and 24 hr after drug administration. Blood samples (< 100 μL each) for all time points were collected via the mandibular vein in plasma collector tubes, centrifuged and plasma (< 50 μL each) was frozen until further use. Plasma samples were analyzed by LC/MS to determine drug plasma levels.

M. tuberculosis Erdman = assay: Chronic Balb/c model of TB infection; format: in vivo, Balb/c mice; conditions: 200 mg/kg
[5] = test system: murine Raw 264.7 macrophages; conditions: mouse
in vitro [6] = conditions: human, Caco-2
[7] = Relative solubility by turbidity in microbiological medium; conditions: pH 6.8, aqueous buffer, kinetic from dmso stock, lowest concentration at which compound was insoluble (turbidity)
Procedure: The relative solubility of compounds was determined in microbiological medium using turbidity as a measure [27]. A serial dilution of compounds was prepared in DMSO and then transferred to microbiological medium at pH 6.8.

T6 sequence (P08684 whole entry, canonical isoform): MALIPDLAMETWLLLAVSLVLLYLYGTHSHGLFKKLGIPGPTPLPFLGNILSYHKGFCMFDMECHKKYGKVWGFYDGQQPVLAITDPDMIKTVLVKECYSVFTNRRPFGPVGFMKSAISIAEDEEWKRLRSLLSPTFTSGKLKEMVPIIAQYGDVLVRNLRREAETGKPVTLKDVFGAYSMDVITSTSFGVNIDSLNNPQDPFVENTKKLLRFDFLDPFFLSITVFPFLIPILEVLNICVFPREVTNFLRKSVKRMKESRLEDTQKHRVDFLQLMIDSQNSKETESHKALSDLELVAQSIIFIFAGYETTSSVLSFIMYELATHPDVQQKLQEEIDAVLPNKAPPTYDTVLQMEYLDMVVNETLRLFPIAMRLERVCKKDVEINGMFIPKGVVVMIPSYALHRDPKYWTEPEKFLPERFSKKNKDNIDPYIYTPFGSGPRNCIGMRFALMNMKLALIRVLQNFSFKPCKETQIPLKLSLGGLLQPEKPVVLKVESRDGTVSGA
T5 sequence (P10635 whole entry, canonical isoform): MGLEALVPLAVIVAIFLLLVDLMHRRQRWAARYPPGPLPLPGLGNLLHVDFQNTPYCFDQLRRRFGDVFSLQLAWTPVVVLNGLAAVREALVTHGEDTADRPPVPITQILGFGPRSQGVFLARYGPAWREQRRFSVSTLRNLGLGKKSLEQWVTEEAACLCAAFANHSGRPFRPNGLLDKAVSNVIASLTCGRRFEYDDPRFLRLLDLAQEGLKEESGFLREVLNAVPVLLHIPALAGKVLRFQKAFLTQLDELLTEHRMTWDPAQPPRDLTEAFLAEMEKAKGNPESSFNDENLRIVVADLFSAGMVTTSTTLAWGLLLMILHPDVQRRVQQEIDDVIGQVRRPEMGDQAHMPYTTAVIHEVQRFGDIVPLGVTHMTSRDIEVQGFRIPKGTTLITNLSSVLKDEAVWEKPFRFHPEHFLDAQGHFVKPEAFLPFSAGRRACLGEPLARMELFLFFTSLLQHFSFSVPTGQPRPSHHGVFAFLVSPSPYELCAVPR
T1 sequence (P20813 whole entry, canonical isoform): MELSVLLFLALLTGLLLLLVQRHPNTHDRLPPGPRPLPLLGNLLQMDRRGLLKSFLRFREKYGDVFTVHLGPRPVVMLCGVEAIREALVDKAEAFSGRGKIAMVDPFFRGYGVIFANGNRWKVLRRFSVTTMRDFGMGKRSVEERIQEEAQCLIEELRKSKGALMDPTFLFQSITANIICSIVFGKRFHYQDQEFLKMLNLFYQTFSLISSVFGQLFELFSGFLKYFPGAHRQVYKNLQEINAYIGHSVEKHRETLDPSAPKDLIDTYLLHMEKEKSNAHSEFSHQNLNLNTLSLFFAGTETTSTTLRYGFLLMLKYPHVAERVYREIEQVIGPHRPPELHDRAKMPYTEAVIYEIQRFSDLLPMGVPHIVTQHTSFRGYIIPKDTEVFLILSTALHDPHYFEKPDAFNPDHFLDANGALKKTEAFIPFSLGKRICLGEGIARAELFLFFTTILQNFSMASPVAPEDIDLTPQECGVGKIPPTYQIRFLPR
T2 sequence (P33261 whole entry, canonical isoform): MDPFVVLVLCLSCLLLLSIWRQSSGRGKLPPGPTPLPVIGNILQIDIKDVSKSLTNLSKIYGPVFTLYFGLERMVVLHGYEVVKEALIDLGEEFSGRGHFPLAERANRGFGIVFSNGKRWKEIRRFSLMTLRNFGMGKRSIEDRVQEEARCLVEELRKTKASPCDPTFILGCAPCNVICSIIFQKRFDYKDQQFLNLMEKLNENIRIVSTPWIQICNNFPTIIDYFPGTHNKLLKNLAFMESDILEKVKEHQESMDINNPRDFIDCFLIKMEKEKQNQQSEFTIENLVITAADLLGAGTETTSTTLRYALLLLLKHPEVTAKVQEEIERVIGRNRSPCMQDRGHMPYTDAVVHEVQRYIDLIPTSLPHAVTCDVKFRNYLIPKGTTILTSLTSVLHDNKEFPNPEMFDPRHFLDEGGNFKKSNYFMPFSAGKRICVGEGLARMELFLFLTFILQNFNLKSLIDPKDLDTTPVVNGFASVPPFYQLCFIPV
T3 sequence (P10632 whole entry, canonical isoform): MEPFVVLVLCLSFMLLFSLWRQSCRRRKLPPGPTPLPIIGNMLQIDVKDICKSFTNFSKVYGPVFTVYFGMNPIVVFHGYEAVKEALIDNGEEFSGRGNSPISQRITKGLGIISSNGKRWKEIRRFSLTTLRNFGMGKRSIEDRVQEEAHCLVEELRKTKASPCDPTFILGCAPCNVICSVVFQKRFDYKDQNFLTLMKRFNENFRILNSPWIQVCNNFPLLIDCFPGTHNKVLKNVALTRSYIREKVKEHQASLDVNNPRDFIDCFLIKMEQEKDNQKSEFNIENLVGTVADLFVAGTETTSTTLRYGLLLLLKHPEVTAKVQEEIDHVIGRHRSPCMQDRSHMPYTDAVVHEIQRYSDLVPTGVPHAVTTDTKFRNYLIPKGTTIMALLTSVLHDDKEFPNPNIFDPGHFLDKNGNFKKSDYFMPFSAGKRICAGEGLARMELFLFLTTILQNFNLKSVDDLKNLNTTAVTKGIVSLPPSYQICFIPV
T4 sequence (P11712 whole entry, canonical isoform): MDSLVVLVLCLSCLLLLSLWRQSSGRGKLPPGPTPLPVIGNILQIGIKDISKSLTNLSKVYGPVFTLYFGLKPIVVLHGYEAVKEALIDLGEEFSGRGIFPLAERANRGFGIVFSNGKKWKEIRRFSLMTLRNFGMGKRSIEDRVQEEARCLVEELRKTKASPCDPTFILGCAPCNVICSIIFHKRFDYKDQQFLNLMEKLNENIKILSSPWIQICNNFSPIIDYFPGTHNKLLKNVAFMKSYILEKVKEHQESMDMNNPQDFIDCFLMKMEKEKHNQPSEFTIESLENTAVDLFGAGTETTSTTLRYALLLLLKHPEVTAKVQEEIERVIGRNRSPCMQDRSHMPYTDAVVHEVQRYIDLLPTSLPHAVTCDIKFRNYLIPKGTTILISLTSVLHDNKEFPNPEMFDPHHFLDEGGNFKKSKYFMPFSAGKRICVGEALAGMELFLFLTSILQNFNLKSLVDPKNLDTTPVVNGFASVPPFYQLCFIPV

Structure (SMILES): Cc1cn2c(C(=O)NCc3ccc(N4CCN(c5ccc(C(F)(F)F)cn5)CC4)c(F)c3)c(C)nc2s1 [ND-11543, N-(3-fluoro-4-(4-(5-(trifluoromethyl)pyridin-2-yl)piperazin-1-yl)benzyl)-2,6-dimethylimidazo[2,1-b]thiazole-5-carboxamide]
- MIC (H37Rv-Mtb): 0.008 µM (≈ 0.00426 µg/mL)
- MIC [1]: 1.1 µM (≈ 0.586 µg/mL)
- IC50 (VERO cell line): > 50 µM
- MIC [2]: 0.0625 µM (≈ 0.0333 µg/mL)
- IC50 (CYP2B6): > 20 µM
- IC50 (CYP2C19): > 20 µM
- IC50 (CYP2C8): 18.4 µM
- IC50 (CYP2C9): 10.2 µM
- IC50 (CYP2D6): > 20 µM
- IC50 (CYP3A4; DDI assay including midazolam, read-out: Cytochrome P450 Inhibition IC50 CYP3A4 (midazolam)): > 20 µM
- IC50 (CYP3A4; DDI assay including tetosterone, read-out: Cytochrome P450 Inhibition IC50 CYP3A4 (tetosterone)): > 20 µM
- IC50 [3]: > 10 µM
- microsomal CLint (in vitro [4]; read-out: Human liver S9 Microsomes CL): 81.3 µL/min/mg
- half-life (in vitro [4]; read-out: Human liver S9 Microsomes T ½): 28.4 min
- MTD (in vivo; female, Balb/c, mouse, in vivo, mice, oral, three consecutive daily doses, read-out: Maximum Tolerated Dose, MTD): > 500 mg/kg
- Acute toxicity observation (in vivo; mice, 100, 300 and 500 mg/kg oral): No acute toxicity was observed
- AUC(0–24)/Dose (Single dose plasma PK; 200 mg/kg oral, without ABT): 58.5 ng·h/mL/mg/kg
- Cmax/Dose (Single dose plasma PK; 200 mg/kg oral, without ABT): 3.22 ng/mL/mg/kg
- Relative Bioavailability [(TA+ABT) / TA] (Single dose plasma PK; female, Balb/c, mouse, in vivo): 318.25
- half-life (Single dose plasma PK; female, Balb/c, mouse, plasma, 200 mg/kg oral, without ABT): > 1440 min
- Log reduction vs Control (Lung) (M. tuberculosis Erdman; 4 weeks, without ABT): 0.30 log10 CFU
- Log reduction vs Control (Spleen) (M. tuberculosis Erdman; 4 weeks, without ABT): 0.36 log10 CFU
- Lung Log10 CFU ±SEM (M. tuberculosis Erdman; ERDMAN, 672 h): 5.49 ± 0.08 Log10 CFU
- Spleen Log10 CFU ±SEM (M. tuberculosis Erdman; ERDMAN, 672 h): 4.64 ± 0.11 Log10 CFU
- Macrophage toxicity concentration relative to MIC [5]: 4 and 8-fold higher than their MIC
- Papp A→B at 1 h (in vitro [6]): 0.376 ×10⁻⁶ cm/s
- Papp A→B at 2 h (in vitro [6]): 0.731 ×10⁻⁶ cm/s
- Papp B→A at 1 h (in vitro [6]): 1.09 ×10⁻⁶ cm/s
- Papp B→A at 2 h (in vitro [6]): 0.758 ×10⁻⁶ cm/s
- efflux ratio (in vitro [6]): 2.23
- solubility [7]: 50 µM (≈ 26.6 µg/mL)
